Source: US6485953B1, “Enzyme capable of hydorlyzing plaque, microorganism producing the same, and a composition comprising the same” (Lifenza Co. Ltd., priority 1999, dated 2002)
Blank lines part the entries; values can stand above or below the compound they belong to.

Legend:
[1] = test system: amylase activity of DXAMase; assay: Stability test: amylase activity of DXAMase in presence of enzyme inhibitors and mouthwash chemicals; format: biochemical, Lipomyces starkeyi KSM 22
Procedure: Amylase activity is measured by reacting the enzyme solution in a buffer solution containing 2% starch for 15 min at 37° C.
(§1) To test the stabilization of dextranase and amylase activities of DXAMase by chemicals comprising mouthwash solution, the enzyme activity was measured in the presence of the enzyme inhibitors and chemicals in the mouthwash solutions in Table 2. In 1 mL of each chemical solution, 5 IU of DXAMase was added and reacted for 5 min at 37° C. Reaction was further carried out by adding 2% dextran or starch of an equal volume.

[2] = test system: dextranase activity of DXAMase; assay: Stability test: dextranase activity of DXAMase in presence of enzyme inhibitors and mouthwash chemicals; format: biochemical, Lipomyces starkeyi KSM 22
Procedure: Dextranase activity is determined by measuring the amount of isomaltose produced by the reaction of an enzyme solution in a buffer solution containing 2% dextran for 15 min at 37° C. Dextranase 1 IU is defined as the amount of the enzyme that produces 1 μmol of isomaltose when reaction is carried out by using dextran as a substrate for 1 min at 37° C.
as §1

[3] = inhibitor concentration 10 mM, 5 IU DXAMase, 5 min at 37° C.

Structure (SMILES): [H]/N=C(\N/C(=N/[H])NCCCCCCNC(=N)NC(=N)Nc1ccc(Cl)cc1)Nc1ccc(Cl)cc1 [Chlorhexydine]
- Relative activity (%) Amylase ([1]; inhibitor concentration 0.01%): 98%
- Relative activity (%) Amylase ([1]; inhibitor concentration 0.02%): 97%
- Relative activity (%) Amylase ([1]; inhibitor concentration 0.05%): 97%
- Relative activity (%) Amylase ([1]; inhibitor concentration 0.1%): 96%
- effect on enzymatic activity of DXAMase (dextranase and amylase), in words ([2]; 5 IU DXAMase in 1 mL chemical solution, 5 min at 37° C.): did not decrease
- Relative activity (%) Dextranase ([2]; inhibitor concentration 0.01%): 98%
- Relative activity (%) Dextranase ([2]; inhibitor concentration 0.02%): 98%
- Relative activity (%) Dextranase ([2]; inhibitor concentration 0.05%): 97%
- Relative activity (%) Dextranase ([2]; inhibitor concentration 0.1%): 93%

Structure (SMILES): O=C(O)CN(CCN(CC(=O)O)CC(=O)O)CC(=O)O [EDTA]
- Relative activity (%) Amylase [1, 3]: 100%
- Relative activity (%) Dextranase [2, 3]: 100%

Structure (SMILES): CCO [Ethanol]
- Relative activity (%) Amylase ([1]; inhibitor concentration 1%): 100%
- Relative activity (%) Amylase ([1]; inhibitor concentration 5%): 98%
- Relative activity (%) Amylase ([1]; inhibitor concentration 10%): 97%
- Relative activity (%) Amylase ([1]; inhibitor concentration 20%): 97%
- Relative activity (%) Dextranase ([2]; inhibitor concentration 1%): 99%
- Relative activity (%) Dextranase ([2]; inhibitor concentration 5%): 98%
- Relative activity (%) Dextranase ([2]; inhibitor concentration 10%): 98%
- Relative activity (%) Dextranase ([2]; inhibitor concentration 20%): 97%

Structure (SMILES): O=C([O-])c1ccccc1.[Na+] [Sodium benzoate]
- Relative activity (%) Amylase ([1]; inhibitor concentration 1%): 100%
- Relative activity (%) Dextranase ([2]; inhibitor concentration 1%): 100%

Second part, the compound after the results:

- Relative activity (%) Amylase ([1]; inhibitor concentration 0.05%): 91%
- Relative activity (%) Dextranase ([2]; inhibitor concentration 0.05%): 94%
Structure (SMILES): F [Fluoride]

- Relative activity (%) Amylase ([1]; inhibitor concentration 1%): 100%
- Relative activity (%) Dextranase ([2]; inhibitor concentration 1%): 100%
Structure (SMILES): CC(O)CO (centres unmarked) [Propylene glycol]

- Relative activity (%) Amylase ([1]; inhibitor concentration 0.05%): 92%
- Relative activity (%) Amylase ([1]; inhibitor concentration 0.5%): 68%
- Relative activity (%) Dextranase ([2]; inhibitor concentration 0.05%): 91%
- Relative activity (%) Dextranase ([2]; inhibitor concentration 0.5%): 85%
Structure (SMILES): CCCCCCCCCCCCOS(=O)(=O)[O-].[Na+] [SDS]
